Data published in patent US12655116B2, “Substituted isophthalic acid diamides” (Bayer Aktiengesellschaft, priority 2020, dated 2026).

Columns and labels:
LOLRI [1] = assay: Post-emergence herbicidal action against LOLRI; format: in vivo, Lolium rigidum; conditions: Lolium rigidum, 504 h; for pest or weed control at 80 g/ha: dosage 80 g/ha
Method in brief: (§1)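 Herbicidal effect was scored visually in percent after about 3 weeks in the greenhouse. Plants had been raised in sandy loam and treated post-emergence at the one-leaf stage with formulated compound at 600 to 800 l/ha water plus 0.2% wetting agent.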

VERPE [2] = assay: Pre-emergence herbicidal action against VERPE; format: in vivo, Veronica persica; conditions: Veronica persica, 504 h; for pest or weed control at 320 g/ha: dosage 320 g/ha
Method in brief: (§2)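 Herbicidal effect was assessed 3 weeks after treatment by visual comparison with untreated controls, 100% denoting dead plants. Aqueous WP or EC preparations had been applied at 600 to 800 l/ha with 0.2% wetting agent to the soil covering freshly sown seeds.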

STEME = assay: Pre-emergence herbicidal action against STEME; format: in vivo, Stellaria media; conditions: Stellaria media, 504 h; for pest or weed control at 80 g/ha: dosage 80 g/ha; for pest or weed control at 320 g/ha: dosage 320 g/ha
Method in brief: as §2

VIOTR [3] = assay: Pre-emergence herbicidal action against VIOTR; format: in vivo, Viola tricolor; conditions: Viola tricolor, 504 h; for pest or weed control at 80 g/ha: dosage 80 g/ha; for pest or weed control at 320 g/ha: dosage 320 g/ha
Method in brief: as §2

ABUTH [4] = assay: Post-emergence herbicidal action against ABUTH; format: in vivo, Abutilon theophrasti; conditions: Abutilon theophrasti, 504 h, visual assessment about 3 weeks after treatment vs untreated controls; for pest or weed control at 20 g/ha: dosage 20 g/ha; for pest or weed control at 80 g/ha: dosage 80 g/ha
Method in brief: as §1

AMARE [5] = assay: Post-emergence herbicidal action against AMARE; format: in vivo, Amaranthus retroflexus; conditions: Amaranthus retroflexus, 504 h, visual assessment about 3 weeks after treatment, 100% = plants have died, 0% = like control plants
Method in brief: as §1

ABUTH [6] = assay: Pre-emergence herbicidal action against ABUTH; format: in vivo, Abutilon theophrasti; conditions: Abutilon theophrasti, 504 h; for pest or weed control at 80 g/ha: scored visually after 3 weeks vs untreated controls (100% = plants have died, 0% = like control plants); for pest or weed control at 320 g/ha: Dosage: 320 g/ha, scored visually after 3 weeks, 100% = plants have died, 0% = like control plants
Method in brief: as §2

ALOMY [7] = assay: Pre-emergence herbicidal action against ALOMY; format: in vivo, Alopecurus myosuroides; conditions: Alopecurus myosuroides, 504 h, pre-emergence; for pest or weed control at 80 g/ha: scored visually after 3 weeks vs untreated controls (100% = plants have died, 0% = like control plants); for pest or weed control at 320 g/ha: scored visually after 3 weeks, 100% = plants have died, 0% = like control plants
Method in brief: as §2

HORMU [8] = assay: Pre-emergence herbicidal action against HORMU; format: in vivo, Hordeum murinum; conditions: Hordeum murinum, 504 h, pre-emergence
Method in brief: as §2

ECHCG [9] = assay: Pre-emergence herbicidal action against ECHCG; format: in vivo, Echinochloa crus-galli; conditions: Echinochloa crus-galli, 504 h
Method in brief: as §2

ALOMY [10] = assay: Post-emergence herbicidal action against ALOMY; format: in vivo, Alopecurus myosuroides; conditions: Alopecurus myosuroides, 504 h, visual assessment about 3 weeks after treatment vs untreated controls; for pest or weed control at 20 g/ha: dosage 20 g/ha; for pest or weed control at 80 g/ha: dosage 80 g/ha
Method in brief: as §1

ECHCG [11] = assay: Post-emergence herbicidal action against ECHCG; format: in vivo, Echinochloa crus-galli; conditions: Echinochloa crus-galli, 504 h; for pest or weed control at 20 g/ha: dosage 20 g/ha; for pest or weed control at 80 g/ha: dosage 80 g/ha
Method in brief: as §1

SETVI = assay: Pre-emergence herbicidal action against SETVI; format: in vivo, Setaria viridis; conditions: Setaria viridis, 504 h; for pest or weed control at 80 g/ha: dosage 80 g/ha; for pest or weed control at 320 g/ha: dosage 320 g/ha
Method in brief: as §2

AMARE [12] = assay: Pre-emergence herbicidal action against AMARE; format: in vivo, Amaranthus retroflexus; conditions: Amaranthus retroflexus, 504 h, 100% = plants have died, 0% = like control plants; for pest or weed control at 80 g/ha: scored visually after 3 weeks vs untreated controls; for pest or weed control at 320 g/ha: scored visually after 3 weeks
Method in brief: as §2

AVEFA = assay: Pre-emergence herbicidal action against AVEFA; format: in vivo, Avena fatua; conditions: Avena fatua, 504 h, pre-emergence; for pest or weed control at 320 g/ha: scored visually after 3 weeks, 100% = plants have died, 0% = like control plants
Method in brief: as §2

POLCO [13] = assay: Pre-emergence herbicidal action against POLCO; format: in vivo, Polygonum convolvulus; conditions: Fallopia convolvulus, 504 h, dosage 320 g/ha
Method in brief: as §2

LOLRI [14] = assay: Pre-emergence herbicidal action against LOLRI; format: in vivo, Lolium rigidum; conditions: Lolium rigidum, 504 h, 320 g/ha
Method in brief: as §2

VERPE [15] = assay: Post-emergence herbicidal action against VERPE; format: in vivo, Veronica persica; conditions: Veronica persica, 504 h
Method in brief: as §1

POLCO [16] = assay: Post-emergence herbicidal action against POLCO; format: in vivo, Polygonum convolvulus; conditions: Fallopia convolvulus, 504 h; for pest or weed control at 80 g/ha: dosage 80 g/ha
Method in brief: as §1

HORMU [17] = assay: Post-emergence herbicidal action against HORMU; format: in vivo, Hordeum murinum; conditions: Hordeum murinum, 504 h; for pest or weed control at 80 g/ha: dosage 80 g/ha; for pest or weed control at 20 g/ha: dosage 20 g/ha
Method in brief: as §1

VIOTR [18] = assay: Post-emergence herbicidal action against VIOTR; format: in vivo, Viola tricolor; conditions: Viola tricolor, 504 h
Method in brief: as §1

SMILES | pest or weed control at 80 g/ha (LOLRI [1]) | pest or weed control at 320 g/ha (VERPE [2]) | pest or weed control at 80 g/ha (STEME) | pest or weed control at 320 g/ha (STEME) | pest or weed control at 80 g/ha (VIOTR [3]) | pest or weed control at 320 g/ha (VIOTR [3]) | pest or weed control at 20 g/ha (ABUTH [4]) | pest or weed control at 80 g/ha (ABUTH [4]) | pest or weed control at 20 g/ha (AMARE [5]) | pest or weed control at 80 g/ha (AMARE [5]) | pest or weed control at 80 g/ha (ABUTH [6]) | pest or weed control at 320 g/ha (ABUTH [6]) | pest or weed control at 320 g/ha (ALOMY [7]) | pest or weed control at 80 g/ha (HORMU [8]) | pest or weed control at 320 g/ha (HORMU [8]) | pest or weed control at 80 g/ha (ECHCG [9]) | pest or weed control at 320 g/ha (ECHCG [9]) | pest or weed control at 80 g/ha (ALOMY [10]) | pest or weed control at 20 g/ha (ECHCG [11]) | pest or weed control at 80 g/ha (ECHCG [11]) | further results
CCNC(=O)c1c(C(F)F)ccc(C(=O)Nc2nnnn2C)c1Cl [Example 1-148] | 90% | 100% | 100% | 100% | 100% | 100% | 90% | 90% | 90% | 90% | 100% | 100% | 100% | 90% | 100% | 100% | 100% | 90% | 80% | 80% | pest or weed control at 20 g/ha (LOLRI [1]; dosage 20 g/ha): 80%; pest or weed control at 80 g/ha (VERPE [2]; dosage 80 g/ha): 80%; pest or weed control at 80 g/ha (ALOMY [7]): 90%; pest or weed control at 20 g/ha (ALOMY [10]): 80%; pest or weed control at 80 g/ha (SETVI): 100%; pest or weed control at 320 g/ha (SETVI): 100%; pest or weed control at 80 g/ha (AMARE [12]): 100%; pest or weed control at 320 g/ha (AMARE [12]): 100%; pest or weed control at 80 g/ha (AVEFA): 100%; pest or weed control at 320 g/ha (AVEFA): 100%; pest or weed control at 320 g/ha (POLCO [13]): 80%; pest or weed control at 320 g/ha (LOLRI [14]): 90%; pest or weed control at 20 g/ha (VERPE [15]): 80%; pest or weed control at 80 g/ha (VERPE [15]): 80%; pest or weed control at 80 g/ha (POLCO [16]): 80%; pest or weed control at 80 g/ha (HORMU [17]): 90%; pest or weed control at 20 g/ha (VIOTR [18]): 80%; pest or weed control at 80 g/ha (VIOTR [18]): 90%
CCNC(=O)c1c(C(F)(F)F)ccc(C(=O)Nc2nnnn2CC)c1SC [Example 2-82] | 90% | 90% | 100% | 100% | 100% | 100% | 90% | 90% | 90% | 90% | 100% | 100% | 100% | 80% | 100% | 100% | 100% | 90% | 80% | 80% | pest or weed control at 80 g/ha (SETVI): 100%; pest or weed control at 320 g/ha (SETVI): 100%; pest or weed control at 80 g/ha (AMARE [12]): 100%; pest or weed control at 320 g/ha (AMARE [12]): 100%; pest or weed control at 80 g/ha (AVEFA): 100%; pest or weed control at 320 g/ha (AVEFA): 100%; pest or weed control at 320 g/ha (POLCO [13]): 90%; pest or weed control at 320 g/ha (LOLRI [14]): 90%; pest or weed control at 20 g/ha (VERPE [15]): 80%; pest or weed control at 80 g/ha (VERPE [15]): 90%; pest or weed control at 80 g/ha (POLCO [16]): 80%; pest or weed control at 20 g/ha (HORMU [17]): 80%; pest or weed control at 80 g/ha (HORMU [17]): 90%; pest or weed control at 20 g/ha (VIOTR [18]): 80%; pest or weed control at 80 g/ha (VIOTR [18]): 80%
CCn1nnnc1NC(=O)c1ccc(C(F)F)c(C(=O)NC)c1Cl [Example 2-147] | 90% | 90% | 100% | 100% | 100% | 100% | 90% | 90% | 90% | 90% | 100% | 100% | 100% | 90% | 100% | 100% | 100% | 90% | 90% | 90% | pest or weed control at 80 g/ha (ALOMY [7]): 90%; pest or weed control at 20 g/ha (ALOMY [10]): 80%; pest or weed control at 80 g/ha (SETVI): 100%; pest or weed control at 320 g/ha (SETVI): 100%; pest or weed control at 80 g/ha (AMARE [12]): 100%; pest or weed control at 320 g/ha (AMARE [12]): 100%; pest or weed control at 80 g/ha (AVEFA): 100%; pest or weed control at 320 g/ha (AVEFA): 100%; pest or weed control at 320 g/ha (POLCO [13]): 80%; pest or weed control at 320 g/ha (LOLRI [14]): 90%; pest or weed control at 20 g/ha (VERPE [15]): 80%; pest or weed control at 80 g/ha (VERPE [15]): 90%; pest or weed control at 80 g/ha (POLCO [16]): 80%; pest or weed control at 20 g/ha (HORMU [17]): 80%; pest or weed control at 80 g/ha (HORMU [17]): 90%; pest or weed control at 80 g/ha (VIOTR [18]): 80%
CNC(=O)c1c(C(F)F)ccc(C(=O)Nc2nnnn2C)c1Cl [Example 1-147] | 90% | 90% | 100% | 100% | 100% | 100% | 90% | 90% | 90% | 90% | 90% | 100% | 100% | 90% | 100% | 100% | 100% | 90% | 90% | 90% | pest or weed control at 80 g/ha (ALOMY [7]): 90%; pest or weed control at 20 g/ha (ALOMY [10]): 80%; pest or weed control at 80 g/ha (SETVI): 100%; pest or weed control at 320 g/ha (SETVI): 100%; pest or weed control at 80 g/ha (AMARE [12]): 100%; pest or weed control at 320 g/ha (AMARE [12]): 100%; pest or weed control at 80 g/ha (AVEFA): 100%; pest or weed control at 320 g/ha (AVEFA): 100%; pest or weed control at 320 g/ha (POLCO [13]): 90%; pest or weed control at 320 g/ha (LOLRI [14]): 100%; pest or weed control at 20 g/ha (VERPE [15]): 90%; pest or weed control at 80 g/ha (VERPE [15]): 90%; pest or weed control at 20 g/ha (POLCO [16]; dosage 20 g/ha): 90%; pest or weed control at 80 g/ha (POLCO [16]): 90%; pest or weed control at 20 g/ha (HORMU [17]): 80%; pest or weed control at 80 g/ha (HORMU [17]): 90%; pest or weed control at 80 g/ha (VIOTR [18]): 80%
